Measured values as given in paper PMC6516726 (ACS Catalysis, 2018).
Like-named read-outs stand apart in the source and are kept apart here.

Experiments:
L25I PETNR = L25I PETNR (Enterobacter cloacae, UniProt P71278, L26I); conditions: for kobs1 / A2 (amplitude of kobs2 out of total absorbance change) / kobs2: 10 mM NADPH or 25 mM NADH, pH 7.0
L25A PETNR = L25A PETNR (Enterobacter cloacae, UniProt P71278, L26A); conditions: for kobs1 / A2 (amplitude of kobs2 out of total absorbance change) / kobs2: pH 7.0
Sequence of L25A PETNR (P71278 entry or part of it L26A): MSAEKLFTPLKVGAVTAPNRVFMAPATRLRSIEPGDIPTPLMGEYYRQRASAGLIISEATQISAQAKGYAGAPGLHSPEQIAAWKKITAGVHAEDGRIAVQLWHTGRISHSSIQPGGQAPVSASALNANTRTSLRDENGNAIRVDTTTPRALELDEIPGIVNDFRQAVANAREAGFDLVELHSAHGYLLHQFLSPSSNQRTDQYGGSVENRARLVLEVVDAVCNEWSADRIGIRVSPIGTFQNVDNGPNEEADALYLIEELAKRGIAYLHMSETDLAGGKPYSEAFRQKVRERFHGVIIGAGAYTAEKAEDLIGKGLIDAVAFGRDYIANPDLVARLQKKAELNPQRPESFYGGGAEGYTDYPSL

WT PETNR = WT PETNR (Enterobacter cloacae, UniProt P71278); assay: Stopped-flow FMN reduction (reductive half-reaction, hydride transfer) of WT PETNR by coenzyme; conditions: for kobs1: 10 mM NADPH or 25 mM NADH, pH 7.0
Sequence of WT PETNR (P71278 entry or part of it): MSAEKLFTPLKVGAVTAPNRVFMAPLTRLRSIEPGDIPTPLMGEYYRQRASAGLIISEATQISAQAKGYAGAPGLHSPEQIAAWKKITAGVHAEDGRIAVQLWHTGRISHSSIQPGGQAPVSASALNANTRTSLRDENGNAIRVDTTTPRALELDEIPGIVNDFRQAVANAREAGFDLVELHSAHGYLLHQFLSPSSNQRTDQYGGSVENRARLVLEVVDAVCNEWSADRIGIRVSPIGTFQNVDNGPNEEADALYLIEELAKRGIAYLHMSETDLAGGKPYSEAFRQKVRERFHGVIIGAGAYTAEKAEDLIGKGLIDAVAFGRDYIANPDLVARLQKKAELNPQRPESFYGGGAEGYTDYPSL

[1] = 25 °C, 50 mM potassium phosphate pH 7.0, 20 μM enzyme
[2] = 25 °C, 50 mM potassium phosphate pH 7.0, 20 μM enzyme, fast phase
[3] = T0 = 298 K, fit of kobs1 (5–40 °C) to eq 1
[4] = 25 °C, 10 mM NADPH or 25 mM NADH
[5] = 30 °C, 10 mM NADPH or 25 mM NADH
[6] = 35 °C, 10 mM NADPH or 25 mM NADH
[7] = 40 °C, third phase, 10 mM NADPH or 25 mM NADH
[8] = 40 °C, 10 mM NADPH or 25 mM NADH

Sequence of L25I PETNR (P71278 entry or part of it L26I): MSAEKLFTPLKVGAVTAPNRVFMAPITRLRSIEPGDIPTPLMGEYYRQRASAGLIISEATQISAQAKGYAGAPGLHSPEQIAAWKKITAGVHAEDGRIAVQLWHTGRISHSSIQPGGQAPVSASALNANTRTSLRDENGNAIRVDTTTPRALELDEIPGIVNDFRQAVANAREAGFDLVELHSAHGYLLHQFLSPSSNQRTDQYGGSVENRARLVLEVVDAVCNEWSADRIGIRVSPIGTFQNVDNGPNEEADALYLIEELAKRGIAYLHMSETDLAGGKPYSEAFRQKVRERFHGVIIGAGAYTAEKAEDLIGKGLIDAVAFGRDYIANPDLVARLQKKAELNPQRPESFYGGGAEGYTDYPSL

## NC(=O)C1=CN([C@@H]2O[C@H](COP(=O)(O)OP(=O)(O)OC[C@H]3O[C@@H](n4cnc5c(N)ncnc54)[C@H](O)[C@@H]3O)[C@@H](O)[C@H]2O)C=CC1 [NADH]
L25I PETNR; 5 °C
  kobs1: 0.49 ± 0.01 s⁻¹
L25I PETNR; 10 °C
  kobs1: 0.66 ± 0.01 s⁻¹
L25I PETNR; 15 °C
  kobs1: 0.90 ± 0.01 s⁻¹
L25I PETNR; 20 °C
  kobs1: 1.20 ± 0.01 s⁻¹
L25I PETNR; [1]
  KS: 306 ± 40 µM
L25I PETNR; [2]
  kred: 1.74 ± 0.04 s^–1
L25I PETNR; 25 °C
  A2 (amplitude of kobs2 out of total absorbance change): 6.40 ± 2.07%
  kobs1: 1.77 ± 0.06 s⁻¹
  kobs2: 0.36 ± 0.10 s⁻¹
L25I PETNR; 30 °C
  A2 (amplitude of kobs2 out of total absorbance change): 6.86 ± 1.61%
  kobs1: 2.39 ± 0.06 s⁻¹
  kobs2: 0.39 ± 0.09 s⁻¹
L25I PETNR; 35 °C
  A2 (amplitude of kobs2 out of total absorbance change): 8.92 ± 1.01%
  kobs1: 3.26 ± 0.07 s⁻¹
  kobs2: 0.49 ± 0.07 s⁻¹
L25I PETNR; 40 °C
  A2 (amplitude of kobs2 out of total absorbance change): 12.28 ± 1.93%
  kobs1: 4.26 ± 0.13 s⁻¹
  kobs2: 0.58 ± 0.05 s⁻¹
L25I PETNR; [3]
  ΔCp^⧧: 0.32 ± 0.18 kJ mol^–1 K^–1
  ΔHT0^⧧: 42.7 ± 1.7 kJ mol^–1
  ΔST0^⧧: –97.7 ± 6.0 J mol^–1 K^–1
L25A PETNR; 5 °C, 10 mM NADPH or 25 mM NADH
  kobs1: 1.27 ± 0.01 s⁻¹
L25A PETNR; 10 °C, 10 mM NADPH or 25 mM NADH
  kobs1: 1.61 ± 0.01 s⁻¹
L25A PETNR; 15 °C, 10 mM NADPH or 25 mM NADH
  kobs1: 2.03 ± 0.01 s⁻¹
L25A PETNR; 20 °C, 10 mM NADPH or 25 mM NADH
  kobs1: 2.63 ± 0.03 s⁻¹
L25A PETNR; [1]
  KS: 2294 ± 91 µM
L25A PETNR; [2]
  kred: 3.62 ± 0.04 s^–1
L25A PETNR; [4]
  A2 (amplitude of kobs2 out of total absorbance change): 2.29 ± 0.92%
  kobs1: 3.33 ± 0.07 s⁻¹
  kobs2: 0.09 ± 0.06 s⁻¹
L25A PETNR; [5]
  A2 (amplitude of kobs2 out of total absorbance change): 4.93 ± 0.85%
  kobs1: 4.23 ± 0.06 s⁻¹
  kobs2: 0.08 ± 0.01 s⁻¹
L25A PETNR; [6]
  A2 (amplitude of kobs2 out of total absorbance change): 12.72 ± 0.74%
  kobs1: 5.20 ± 0.11 s⁻¹
  kobs2: 0.11 ± 0.01 s⁻¹
L25A PETNR; [7]
  A3 (amplitude of third phase): 19.01 ± 3.17%
  kobs3: 1.10 ± 0.0
L25A PETNR; [8]
  A2 (amplitude of kobs2 out of total absorbance change): 20.40 ± 1.48%
  kobs1: 6.74 ± 0.37 s⁻¹
  kobs2: 0.13 ± 0.01 s⁻¹
L25A PETNR; [3]
  ΔCp^⧧: 0.28 ± 0.05 kJ mol^–1 K^–1
  ΔHT0^⧧: 33.6 ± 0.5 kJ mol^–1
  ΔST0^⧧: –122.1 ± 1.7 J mol^–1 K^–1
WT PETNR; 5 °C
  kobs1: 0.73 ± 0.01 s⁻¹
WT PETNR; 10 °C
  kobs1: 0.92 ± 0.01 s⁻¹
WT PETNR; 15 °C
  kobs1: 1.17 ± 0.01 s⁻¹
WT PETNR; 20 °C
  kobs1: 1.51 ± 0.01 s⁻¹
WT PETNR; [1]
  KS: 1067 ± 13 µM
WT PETNR; [2]
  kred: 2.03 ± 0.01 s^–1
WT PETNR; 25 °C
  kobs1: 1.95 ± 0.01 s⁻¹
WT PETNR; 30 °C
  kobs1: 2.53 ± 0.02 s⁻¹
WT PETNR; 35 °C
  kobs1: 3.30 ± 0.01 s⁻¹
WT PETNR; 40 °C
  kobs1: 4.25 ± 0.02 s⁻¹
WT PETNR; [3]
  ΔCp^⧧: 0.39 ± 0.03 kJ mol^–1 K^–1
  ΔHT0^⧧: 35.4 ± 0.1 kJ mol^–1
  ΔST0^⧧: –120.5 ± 0.5 J mol^–1 K^–1
